The text below walks through data of US10947252B2, “Inhibitors of KEAP1-Nrf2 protein-protein interaction” (Janssen Pharmaceutica NV, priority 2018, dated 2021).

The target of test [1] is Kelch domain of human KEAP1 (321-624 aa) (Homo sapiens (Human), UniProt Q14145). Kind of test: KEAP1 KELCH ThermoFluor binding assay.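 Also: Ligand-induced melting temperature shift of E. coli-expressed KEAP1 Kelch protein, Kd estimated from concentration-response curves of ΔTm.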 The following applies: KEAP Kelch […], 1,8-ANS, pH 7.0, average of results obtained, read-out: Tf Kd.
Sequence of Kelch domain of human KEAP1 (321-624 aa) (Q14145 321-624): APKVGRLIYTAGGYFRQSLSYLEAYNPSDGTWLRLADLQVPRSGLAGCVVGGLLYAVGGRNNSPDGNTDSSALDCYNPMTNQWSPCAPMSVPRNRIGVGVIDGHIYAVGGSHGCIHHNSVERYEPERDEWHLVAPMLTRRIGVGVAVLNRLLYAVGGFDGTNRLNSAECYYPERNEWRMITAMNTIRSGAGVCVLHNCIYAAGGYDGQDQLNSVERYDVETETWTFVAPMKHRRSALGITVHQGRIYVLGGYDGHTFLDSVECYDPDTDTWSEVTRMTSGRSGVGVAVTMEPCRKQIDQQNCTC
For test [2], the system named is Glo-Response ARE-luc2P HEK293 cell line. Kind of test: ARE luciferase reporter cell-based assay.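 Also: luciferase signal tracks Nrf2 activation of the ARE once compounds disrupt KEAP1-Nrf2 binding, read with One-Glo reagent, DMSO serving as low control.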 The following applies: Homo sapiens, HEK293, 24 h, average of results obtained.

In the case of `Cc1cnc([C@@H](c2ccn3c(C(F)F)nnc3c2C)C(C)(C)C(=O)O)cc1CN1CC2(CCOCC2)Oc2nc(OCCN3CCCC3)c(C)cc2S1(=O)=O` (single isomer, unassigned) [Example 640, (*S)-3-(3-(Difluoromethyl)-8-methyl-[1,2,4]triazolo[4,3-a]pyridin-7-yl)-2,2-dimethyl-3-(5-methyl-4-((8′-methyl-1′,1′-dioxido-7′-(2-(pyrrolidin-1-yl)ethoxy)-2,3,5,6-tetrahydrospiro[pyran-4,4′-pyrido[2,3-b][1,4,5]oxathiazepin]-2′(3′H)-yl)methyl)pyridin-2-yl)propanoic Acid], the dissociation constant Kd in test [1] was under 1 nM. For the same compound, in test [2], the concentration for a half-maximal effect (EC50) was found to be 73.9 nM.

Take `Cc1cnc2c(c1)S(=O)(=O)N(Cc1nc([C@@H](CC(=O)O)c3ccn4c(C(F)(F)F)nnc4c3C)ccc1C)C[C@H]1CCCCN21` (single isomer, unassigned) [Example 491, (*S)-3-(8-Methyl-3-(trifluoromethyl)-[1,2,4]triazolo[4,3-a]pyridin-7-yl)-3-(5-methyl-6-(((*R)-3-methyl-5,5-dioxido-7,7a,8,9,10,11-hexahydro-6H-dipyrido[2,1-d:2′,3′-f][1,2,5]thiadiazepin-6-yl)methyl)pyridin-2-yl)propanoic Acid]: the Kd in test [1] was under 1 nM. Also, in test [2], the EC50 came to 5.53 nM.

With `Cc1ccc([C@H](c2ccn3c(C4CC4)nnc3c2C)C(C)(C)C(=O)O)cc1CN1CC2(CCOCC2)Oc2ncccc2S1(=O)=O` (single isomer, unassigned) [Example 42, (*R)-3-(3-Cyclopropyl-8-methyl-[1,2,4]triazolo[4,3-a]pyridin-7-yl)-3-(3-((1′,1′-dioxido-2,3,5,6-tetrahydrospiro[pyran-4,4′-pyrido[2,3-b][1,4,5]oxathiazepin]-2′(3′H)-yl)methyl)-4-methylphenyl)-2,2-dimethylpropanoic Acid], the dissociation constant (Kd) in test [1] was found to be 7540 nM. This compound returned an EC50 in test [2] of 3460 nM.

Turning to `CCc1nnc2c(C)c(C(CC(=O)O)c3ccc(C)c(CN4C[C@H]5CCCN5c5ncccc5S4(=O)=O)c3)ccn12` (stereo partly drawn) [Example 281, 3-(3-(((R)-5,5-Dioxido-7a,8,9,10-tetrahydropyrido[2,3-f]pyrrolo[2,1-d][1,2,5]thiadiazepin-6(7H)-yl)methyl)-4-methylphenyl)-3-(3-ethyl-8-methyl-[1,2,4]triazolo[4,3-a]pyridin-7-yl)propanoic Acid], the equilibrium dissociation constant (Kd) in test [1] is under 1 nM. In test [2], this compound displayed a half-maximal effective concentration (EC50) of 480 nM.

As for `CCn1nnc2c(C)c(C(CC(=O)O)c3ccc(C)c(CN4C[C@H]5CCCN5c5ncccc5S4(=O)=O)n3)ccc21` (stereo partly drawn) [Example 296, 3-(6-(((R)-5,5-Dioxido-7a,8,9,10-tetrahydropyrido[2,3-f]pyrrolo[2,1-d][1,2,5]thiadiazepin-6(7H)-yl)methyl)-5-methylpyridin-2-yl)-3-(1-ethyl-4-methyl-1H-benzo[d][1,2,3]triazol-5-yl)propanoic Acid], the dissociation constant Kd in test [1] was under 1 nM. This compound also came in with a concentration giving a half-maximal response (EC50) in test [2] of 13.6 nM.

Turning to `Cc1cnc2c(c1)S(=O)(=O)N(Cc1nc([C@H](c3ccn4c(C(F)F)nnc4c3C)C(C)(C)C(=O)O)ccc1C)CC1(COC1)O2` (single isomer, unassigned) [Example 626, (*R)-3-(3-(Difluoromethyl)-8-methyl-[1,2,4]triazolo[4,3-a]pyridin-7-yl)-2,2-dimethyl-3-(5-methyl-6-((8′-methyl-1′,1′-dioxidospiro[oxetane-3,4′-pyrido[2,3-b][1,4,5]oxathiazepin]-2′(3′H)-yl)methyl)pyridin-2-yl)propanoic Acid], the Kd in test [1] was 2980 nM. In addition, the EC50 in test [2] worked out at 229 nM.

Take `Cc1ccc(C(CC(=O)O)c2ccc3c(nnn3CC3CC3)c2C)cc1CN1C[C@@H]2CCCCN2c2ncccc2S1(=O)=O` (mixture of isomers) [Example 231, (R/S)-3-(1-(Cyclopropylmethyl)-4-methyl-1H-benzo[d][1,2,3]triazol-5-yl)-3-(3-(((*S)-5,5-dioxido-7,7a,8,9,10,11-hexahydro-6H-dipyrido[2,1-d:2′,3′-f][1,2,5]thiadiazepin-6-yl)methyl)-4-methylphenyl)propanoic Acid]: the dissociation constant (Kd) in test [1] is under 1 nM. In test [2], the EC50 is 7 nM.

Turning to `Cc1ccc([C@H](c2ccn3c(C(F)F)nnc3c2C)C(C)(C)C(=O)O)nc1CN1CC2(COC2)Oc2ncccc2S1(=O)=O` (single isomer, unassigned) [Example 611, (*R)-3-(3-(Difluoromethyl)-8-methyl-[1,2,4]triazolo[4,3-a]pyridin-7-yl)-3-(6-((1′,1′-dioxidospiro[oxetane-3,4′-pyrido[2,3-b][1,4,5]oxathiazepin]-2′(3′H)-yl)methyl)-5-methylpyridin-2-yl)-2,2-dimethylpropanoic Acid], in test [1], the Kd stood at 12800 nM. It took 574 nM to reach a half-maximal effect in test [2] (EC50).

Turning to `Cc1ccc([C@@H](c2ccn3c(C(F)(F)F)nnc3c2C)C(C)(C)C(=O)O)cc1CN1CC2(CCOCC2)Oc2nc(OCCCOCCCO)ccc2S1(=O)=O` (single isomer, unassigned) [Example 607, (*S)-3-(3-((7′-(3-(3-Hydroxypropoxy)propoxy)-1′,1′-dioxido-2,3,5,6-tetrahydrospiro[pyran-4,4′-pyrido[2,3-b][1,4,5]oxathiazepin]-2′(3′H)-yl)methyl)-4-methylphenyl)-2,2-dimethyl-3-(8-methyl-3-(trifluoromethyl)-[1,2,4]triazolo[4,3-a]pyridin-7-yl)propanoic Acid], in test [1], the Kd was 1360 nM. Besides, the EC50 in test [2] stood at 7620 nM.

In the case of `Cc1ccc(C(CC(=O)O)c2ccn3c(C(F)(F)F)nnc3c2C)nc1CN1C[C@@H]2CCCCN2c2ncc(F)cc2S1(=O)=O` (stereo in doubt) [Example 496, 3-(6-(((*S)-3-Fluoro-5,5-dioxido-7,7a,8,9,10,11-hexahydro-6H-dipyrido[2,1-d:2′,3′-f][1,2,5]thiadiazepin-6-yl)methyl)-5-methylpyridin-2-yl)-3-(8-methyl-3-(trifluoromethyl)-[1,2,4]triazolo[4,3-a]pyridin-7-yl)propanoic Acid], the Kd in test [1] was under 1 nM. Also, the response in test [2] was half-maximal at 7.65 nM (EC50).

Regarding `CC[C@@H]1CN(Cc2cc([C@H](CC(=O)O)c3ccn4c(C(F)(F)F)nnc4c3)ccc2C)S(=O)(=O)c2cccnc2O1` (single isomer, unassigned) [Example 257, (*S)-3-(3-(((R)-4-Ethyl-1,1-dioxido-3,4-dihydro-2H-pyrido[2,3-b][1,4,5]oxathiazepin-2-yl)methyl)-4-methylphenyl)-3-(3-(trifluoromethyl)-[1,2,4]triazolo[4,3-a]pyridin-7-yl)propanoic Acid], in test [1], the Kd is under 1 nM. Also, in test [2], the concentration giving a half-maximal response (EC50) turned out to be 574 nM.

On to `Cc1cnc2c(c1)S(=O)(=O)N(Cc1nc(C(CC(=O)O)c3ccn4c(C(F)(F)F)nnc4c3C)ccc1C)C[C@@H]1CCCCN21` (stereo in doubt) [Example 487, 3-(8-Methyl-3-(trifluoromethyl)-[1,2,4]triazolo[4,3-a]pyridin-7-yl)-3-(5-methyl-6-(((*S)-3-methyl-5,5-dioxido-7,7a,8,9,10,11-hexahydro-6H-dipyrido[2,1-d:2′,3′-f][1,2,5]thiadiazepin-6-yl)methyl)pyridin-2-yl)propanoic Acid], for which, in test [1], the equilibrium dissociation constant (Kd) is under 1 nM. The concentration giving a half-maximal response (EC50) in test [2] came out at 18.3 nM.

For `Cc1ccc([C@H](CC(=O)O)c2ccn3c(C(F)(F)F)nnc3c2C)nc1CN1CC2(COC2)Oc2ccccc2S1(=O)=O` (single isomer, unassigned) [Example 486, (*R)-3-(6-((1,1-dioxidospiro[benzo[b][1,4,5]oxathiazepine-4,3′-oxetan]-2(3H)-yl)methyl)-5-methylpyridin-2-yl)-3-(8-methyl-3-(trifluoromethyl)-[1,2,4]triazolo[4,3-a]pyridin-7-yl)propanoic Acid], the equilibrium dissociation constant (Kd) in test [1] was determined as 1.83 nM. Moreover, in test [2], a half-maximal effect (EC50) was put at 333 nM.

For `Cc1ccc([C@H](CC(=O)O)c2ccn3c(C(F)F)nnc3c2C)cc1CN1CC2(CCOCC2)Oc2ncc(F)cc2S1(=O)=O` (single isomer, unassigned) [Example 533, (*S)-3-(3-(Difluoromethyl)-8-methyl-[1,2,4]triazolo[4,3-a]pyridin-7-yl)-3-(3-((8′-fluoro-1′,1′-dioxido-2,3,5,6-tetrahydrospiro[pyran-4,4′-pyrido[2,3-b][1,4,5]oxathiazepin]-2′(3′H)-yl)methyl)-4-methylphenyl)propanoic Acid], the Kd in test [1] is under 1 nM. Besides, in test [2], the EC50 was found to be 31.3 nM.

With `Cc1cc2cc(C(CC(=O)O)c3ccc(C)c(CN4C[C@H]5CCCN5c5ncccc5S4(=O)=O)c3)n(C)c2nn1` (mixture of isomers) [Example 434, 3-(3,7-Dimethyl-7H-pyrrolo[2,3-c]pyridazin-6-yl)-3-(3-(((R)-5,5-dioxido-7a,8,9,10-tetrahydropyrido[2,3-f]pyrrolo[2,1-d][1,2,5]thiadiazepin-6(7H)-yl)methyl)-4-methylphenyl)propanoic Acid], the Kd in test [1] is 1.51 nM. Further, the EC50 in test [2] amounted to 3870 nM.

In the case of `Cc1ccc([C@H](CC(=O)O)c2ccn3c(C(F)F)nnc3c2C)cc1CN1CC2(CC2)Oc2ncccc2S1(=O)=O` (single isomer, unassigned) [Example 473, (*S)-3-(3-(Difluoromethyl)-8-methyl-[1,2,4]triazolo[4,3-a]pyridin-7-yl)-3-(3-((1′,1′-dioxidospiro[cyclopropane-1,4′-pyrido[2,3-b][1,4,5]oxathiazepin]-2′(3′H)-yl)methyl)-4-methylphenyl)propanoic Acid], the equilibrium dissociation constant (Kd) in test [1] is under 1 nM. The compound also gave a half-maximal effective concentration (EC50) in test [2] of 104 nM.

As for `Cc1ccc([C@@H](c2ccn3c(C(F)F)nnc3c2C)C(C)(C)C(=O)O)cc1CN1CC2(COC2)Oc2ncccc2S1(=O)=O` (single isomer, unassigned) [Example 616, (*S)-3-(3-(difluoromethyl)-8-methyl-[1,2,4]triazolo[4,3-a]pyridine-7-yl)-3-(3-((1′,1′-dioxidospiro[oxetane-3,4′-pyrido[2,3-b][1,4,5]oxathiazepin]-2′(3′H)-yl)methyl)-4-methylphenyl)-2,2-dimethylpropanoic Acid], in test [1], the Kd was under 1 nM. For the same compound, in test [2], the response was half-maximal at 2.14 nM (EC50).
